System: youth with ASD
Experiment: Treatment response based on baseline PgACC glutamate activity (high vs normal; treatment group-by-glutamate-by-visit interaction)
Type: in vivo, human
Conditions: for Mean # of AEs / # of Participants with AEs / Treatment-Limiting AEs: TOLERABILITY
Method: The primary outcome was analyzed using Pearson's chi-square test at the a priori defined significance level of 0.05. Secondary measures of efficacy were analyzed using mixed-effects regression models with robust standard errors to account for the repeated measures on each subject. The primary and secondary measures were compared between memantine versus placebo as well as between those with high versus normal baseline glutamate activity levels. Participants were categorized as having high versus normal glutamate activity levels at baseline using z-scores. The population mean and SD for z-score calculations were derived from healthy control glutamate activity levels (baseline and endpoint). Glutamate activity levels with z-scores≥1 were categorized as high glutamate activity levels, those with z-scores<1 and >−1 were categorized as normal glutamate activity levels and those with z-scores≤−1 were categorized as low glutamate activity levels. Changes in PgACC glutamate activity levels within groups were tested using paired t-tests and changes between groups were tested using two-sample t-tests. We also performed ROC curve analyses to determine the predictive utility of baseline PgACC glutamate activity levels in identifying treatment responders within the memantine and placebo groups. All analyses apart from the analysis of the primary outcome were considered exploratory. Analyses were performed using a modified intent-to-treat analysis set which included all randomized patients who were regarded exposed to study medication (completed at least two weeks of treatment) and had at least one follow-up assessment.
The mixed-effects regression models used to analyze the secondary measures of efficacy predicted the outcome measure from treatment group (memantine versus placebo), study visit (continuous), and the treatment group-by-study visit interaction, which is our test of efficacy. To examine the effect of baseline PgACC glutamate activity level on the response to treatment, we predicted outcomes measures from treatment group, study visit (continuous), PgACC glutamate activity level (continuous), treatment group-by-study visit interaction, glutamate activity level-by-study visit interaction, treatment group-by-glutamate activity level interaction, and treatment group-by-glutamate activity level-by-study visit interaction. All mixed-effects regression models had random intercepts by subject ID, used robust standard errors to account for the repeated measures on each subject, and used an independent covariance structure for the random effects. […] All missing data were assumed to be missing at random.
Effect sizes are presented as standardized mean differences (SMD) for continuous outcomes and odds ratios (OR) for dichotomous outcomes. The SMDs for the difference of the changes in scores over time between memantine and placebo and between high glutamate and normal glutamate were calculated as Cohen's d using the following calculations: the difference in the change scores between the two groups divided by the pooled standard deviation. The SMDs for changes in scores within groups were calculated as Cohen's d using the following calculation: difference in score from baseline to endpoint divided by the pooled standard deviation. For comparisons of memantine versus placebo and high glutamate versus normal glutamate, positive SMDs and ORs>1 indicate better improvement in the memantine group and high glutamate group, respectively. For comparisons of ASD versus healthy controls, positive SMDs indicate lower glutamate activity levels in the ASD group. As defined by Cohen (Statistical Power Analysis for the Behavioral Sciences. 2nd ed. Hillsdale, NJ: Erlbaum. 1988), a SMD=0.2 is interpreted as a small effect size, SMD=0.5 as medium, and SMD=0.8 as large. We considered ORs>2 to be clinically meaningful.

[1] = HIGH glutamate activity levels, MEM N = 10
[2] = NORMAL glutamate activity levels, MEM N = 5
[3] = NORMAL glutamate activity levels, MEM N = 8

## CC12CC3CC(C)(C1)CC(N)(C3)C2 [MEM, memantine]
[1]
  ABC-Social Withdrawal MD: −8.5 ± 7.6
  ADHD-RS MD: −9.9 ± 11.7
  CASI-ANX MD: −10.3 ± 5.1
  CDRS-R MD: −9.8 ± 11.2
  CGI-1≤2: 9 (90) N (%)
  CY-BOCS-PDD MD: −0.5 ± 1.6
  GAF MD: 9.1 ± 5.4
  SRS-Autistic Mannerisms MD: −10.3 ± 5.3
  SRS-SCI MD: −39.8 ± 21.1
  SRS-Social Awareness MD: −5.0 ± 4.2
  SRS-Social Cognition MD: −8.1 ± 5.8
  SRS-Social Communication MD: −17.9 ± 7.7
  SRS-Social Motivation MD: −8.8 ± 5.3
  SRS-Total MD: −50.1 ± 25.7
  ≥25% ↓↓SRS: 9 N
  ≥25% ↓↓SRS + CGI-I ≤ 2: 8 (80) N (%)
  # of Participants with AEs: 7 (70) N (%)
  Treatment-Limiting AEs: 0 (0) N (%)
[2]
  ABC-Social Withdrawal MD: −3.6 ± 5.6
  ADHD-RS MD: −8.2 ± 7.4
  CASI-ANX MD: −2.4 ± 5.2
  CDRS-R MD: −8.0 ± 11.8
  CGI-≤2: 3 (60) N (%)
  CY-BOCS-PDD MD: −2.0 ± 2.8
  GAF MD: 4.6 ± 4.3
  SRS-Autistic Mannerisms MD: −1.8 ± 5.1
  SRS-SCI MD: −9.2 ± 5.3
  SRS-Social Awareness MD: −0.8 ± 1.8
  SRS-Social Cognition MD: −2.0 ± 2.6
  SRS-Social Communication MD: −2.8 ± 2.7
  SRS-Social Motivation MD: −3.0 ± 4.0
  SRS-Total MD: −10.6 ± 10.6
  ≥25% WISRS±CGI-1≤2: 0 (0) N (%)
  ≥25% WLSRS: 0 (0) N (%)
HIGH glutamate activity levels, MEM N = 7
  Mean # of AEs: 2.4 ± 1.3
NORMAL glutamate activity levels, MEM N = 6
  Mean # of AEs: 2.8 ± 1.0
[3]
  # of Participants with AEs: 4 (50) N (%)
  Treatment-Limiting AEs: 2 (25) N (%)
Memantine group
  Association of higher baseline PgACC glutamate activity levels with change scores (SRS Total, SRS-SCI, ABC-Social Withdrawal): greater change scores
